Reference: patent US7671057B2, “Therapeutic agent for type II diabetes comprising protease-inhibiting compound” (Ono Pharmaceutical Co., Ltd., priority 2004, dated 2010)
“Also recorded” adds a separate entry of the source.

Experiments:
[1] = tested on: KK-A^y/Ta Jcl mice; test: Plasma GLP-1, glucagon, blood-sugar, HbA1c and TG 30 min after forced oral administration on Day 28 (Example 3); type: in vivo, mouse
Experimental: (§1) On Day 28 of administration of each compound in the form of an admixture with a food, furthermore, each animal after blood had been drawn from the tail vein was treated through individual forced oral administration of the Test Compound 2 in the form of the solutions individually consisting of 0.2, 0.6, 2.0 and 6.0 mg/mL-0.5% CMC suspension in each 5 mL/kg portion, as well as the Control Compound 1 in the form of the solutions individually consisting of 2.0 and 6 mg/mL-0.5% CMC suspension in each 5 ml/kg portion, followed by blood drawing 30 min. later and autopsy to thereby measure the weights of the pancreas, liver and kidney, whereby the control group was treated through administration of the 0.5% CMC suspension in the same portion.
(§2) The blood samples taken from the tail vein on the respective specified days after the administration were subjected to measurement of the blood-sugar level in accordance with the method as described in Example 1, while the plasma glucagon level after the forced oral administration performed on Days 28 was measured in accordance with the ELISA method as described in Example 1. Also, the glycosylated hemoglobin (HbA1c) and GLP-1 levels were determined in accordance with the latex coagulation method and the ELISA method (YK160, GLP-1 EIA Kit, produced by K.K. Yanaihara Kenkyu-sho of Japan), respectively, while the TG level was measured in accordance with the method as described in Example 1. The total pancreatic insulin content after oral administration of each compound was determined by adding 75% ethanol to the isolated pancreas as frozen, followed by homogenization, and collecting the insulin fraction through Sep-Pak (C18; WATER) treatment of the supernatant liquid produced by centrifugation, followed by determination with the ELIZA method.

[2] = biological target: leukotriene B4 (LTB4) receptor (Homo sapiens, UniProt Q15722); details: cited from earlier work
[3] = tested on: KK-A^y/Ta Jcl mice; test: Blood-sugar level at satiety, dose-ranging food admixture up to Day 28 (Example 3); type: in vivo, mouse; details: for Blood-sugar level: end of the test (Day 28)
Experimental: KK-A^y/Ta Jcl Mice (male, 6-weeks aged, the number of cases; 8 animals) were treated through individual administration, in the form of an admixture with a food, of the Test Compound 2 (N-allyl-N-{(2E)-3-[4-({4-[amino(imino)methyl]phenoxy}-carbonyl)phenyl]-2-methyl-2-propenoyl}glycine/dimethanesulfonate) of the present invention at the daily doses of 0.56 mg, 1.68 mg, 5.6 mg and 16.8 mg/100 g-food, respectively, and the Control Compound 1 (5-{4-[2-(5-ethylpyridine-2-yl)-ethoxy]benzyl}-1,3-thiazolidine-2,4-dion; pioglitazone) at the daily doses of 5.6 mg and 16.8 mg/100 g-food, respectively, […], whereby the control group was fed with an ordinary food alone.
Blood was drawn from the tail vein individually on the day preceding to administration of each compound in the form of an admixture with a food, and on Days 6, 11, 16, 21 and 28 of administration.
as §2

[4] = tested on: KK-A^y/Ta Jcl mice; test: Blood-sugar level, administration as admixture with food (Example 2); type: in vivo, mouse
Experimental: (§3) KK-A^y/Ta Jcl Mice (male, 6- to 7-weeks aged, the number of cases; 8 animals) were treated through individual administration, in the form of an admixture with a food, of the Test Compound 2 (N-allyl-N-{(2E)-3-[4-({4-[amino(imino)methyl]phenoxy}-carbonyl)phenyl]-2-methyl-2-propenoyl}glycine/dimethane-sulfonate) of the present invention and the Control Compound 1 (5-(4-[2-(5-ethylpyridine-2-yl)ethoxy]benzyl)-1,3-thiazolidine-2,4-dione; pioglitazone) at the daily dose of 16.8 mg/100 g-food for 7 consecutive days, whereby the control group was fed with an ordinary food alone.
(§4) Blood was drawn from the tail vein individually on the day (Day 1) preceding to administration of the Test Compound in the form of an admixture with a food, and on Days 2, 5, 7 and 14 of administration, and the blood samples were subjected to measurement of the blood-sugar level in accordance with the same procedure as described in Example 1, while, at the same time, the animals were weighed.

[5] = tested on: KK-A^y/Ta Jcl mice; test: Weights of pancreas, liver and kidney at autopsy (Example 3); type: in vivo, mouse
Experimental: as §1

[6] = tested on: KK-A^y/Ta Jcl mice; test: Total pancreatic insulin content (Example 3); type: in vivo, mouse
Experimental: as §2

[7] = Body weight, administration as admixture with food (Example 2); type: in vivo, mouse
Experimental: as §3, §4

[8] = tested on: pancreatic Langerhans' islets; test: Histopathological analysis of the pancreas (Example 3); type: in vivo, mouse; details: Day 28
Experimental: Histopathological analysis of the pancreas (pathological analysis of the pancreatic Langerhans' islets (α-, β- and δ-cells) was carried out by embedding the tissue in paraffin, followed by thin slicing and respective staining through the Grimelius staining, Gomori's aldehyde-fuchsin staining and Hellman-Hellerstroem' staining.

[9] = day preceding administration (baseline), 16.8 mg/100 g-food group
[10] = autopsy Day 28, Dose 0.56 (g/100 g-food)
[11] = autopsy Day 28, Dose 1.68 (g/100 g-food)
[12] = autopsy Day 28, Dose 16.8 (g/100 g-food)

Sequence of leukotriene B4 (LTB4) receptor (Q15722 whole entry): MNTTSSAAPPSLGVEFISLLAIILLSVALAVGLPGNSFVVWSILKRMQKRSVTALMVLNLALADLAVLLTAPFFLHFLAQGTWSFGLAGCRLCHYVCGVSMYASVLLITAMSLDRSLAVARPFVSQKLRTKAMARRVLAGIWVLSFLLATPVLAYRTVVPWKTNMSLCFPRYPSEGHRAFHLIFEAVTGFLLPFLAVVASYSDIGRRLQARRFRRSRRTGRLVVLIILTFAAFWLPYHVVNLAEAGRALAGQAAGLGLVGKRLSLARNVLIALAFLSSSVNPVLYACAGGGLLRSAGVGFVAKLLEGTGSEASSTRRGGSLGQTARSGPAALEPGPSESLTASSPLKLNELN

Structure (SMILES): C=CCN(CC(=O)O)C(=O)/C(C)=C/c1ccc(C(=O)Oc2ccc(C(=N)N)cc2)cc1 [Test Compound 2, N-allyl-N-{(2E)-3-[4-({4-[amino(imino)methyl]phenoxy}-carbonyl)phenyl]-2-methyl-2-propenoyl}glycine/dimethane-sulfonate]
- Change in HbA1C level (in words) [1]: decreased
- Change in TG level (in words) [1]: decreased
- Change in blood-sugar level (in words) [1]: decreased
- Change in plasma glucagon level (in words) [1]: drops in the plasma glucagon level
- Change in plasma GLP-1 level (in words) ([1]; 30 min after forced oral administration): plasma GLP-1 increasing effect
- LTB4 receptor antagonistic action [2]: LTB4 antagonistic action
- Time-course changes in blood-sugar level at satiety vs Control Group (in words, FIG. 1) ([3]; 5.6 mg/100 g group): significant drop in the blood-sugar level at the end of the test
- Time-course changes in blood-sugar level at satiety vs Control Group (in words, FIG. 1) ([3]; 16.8 mg/100 g group): significant continued drops in the blood-sugar level
- Blood-sugar level ([3]; Dose 0.56 (g/100 g-food)): 524.6 ± 47.3 mg/dL
- Blood-sugar level ([3]; Dose 1.68 (g/100 g-food)): 620.9 ± 79.6 mg/dL
- Blood-sugar level ([3]; Dose 5.6 (g/100 g-food)): 369.7 ± 39.6 mg/dL
- Blood-sugar level ([3]; Dose 16.8 (g/100 g-food)): 251.2 ± 34.7 mg/dL
- Blood-sugar level Day 2 ([4]; 16.8 mg/100 g-food admixture): 286.5 ± 58.3 mg/dL
- Blood-sugar level Day 5 ([4]; 16.8 mg/100 g-food admixture): 314.8 ± 14.4 mg/dL
- Blood-sugar level Day 7 ([4]; 16.8 mg/100 g-food admixture): 291.0 ± 5.1 mg/dL
- Blood-sugar level Day 14 ([4]; 16.8 mg/100 g-food admixture): 248.0 ± 11.5 mg/dL
- Blood-sugar level Day 1 [4, 9]: 300.0 ± 18.9 mg/dL
- Blood-sugar lowering action (in words) ([4]; food admixture 16.8 mg/100 g-food, as from Day 5 afterwards): significant blood-sugar lowering action; also recorded: more potent blood-sugar lowering action
- Weight of the kidney (in words) ([5]; autopsy Day 28): suppressed from rising
- Weight of the liver (in words) ([5]; autopsy Day 28): suppressed from rising
- Weight of the pancreas (in words) ([5]; autopsy Day 28): increased
- Weight Kidney [5, 10]: 0.47 ± 0.01 g
- Weight Liver [5, 10]: 2.01 ± 0.08 g
- Weight Pancreas [5, 10]: 0.342 ± 0.01 g
- Weight Kidney [5, 11]: 0.49 ± 0.01 g
- Weight Liver [5, 11]: 2.08 ± 0.07 g
- Weight Pancreas [5, 11]: 0.41 ± 0.02 g
- Weight Kidney [5, 12]: 0.41 ± 0.01 g
- Weight Liver [5, 12]: 1.52 ± 0.06 g
- Weight Pancreas [5, 12]: 0.45 ± 0.03 g
- Total pancreatic insulin content (in words) ([6]; Day 28): increase in the total pancreatic insulin content
- Total pancreatic insulin content ([6]; Day 28, Dose 1.68 (g/100 g-food)): 9.40 ± 2.24 µg
- Total pancreatic insulin content ([6]; Day 28, Dose 5.6 (g/100 g-food)): 17.11 ± 2.76 µg
- Body weight Day 2 ([7]; 16.8 mg/100 g-food admixture): 29.8 ± 0.7 g
- Body weight Day 5 ([7]; 16.8 mg/100 g-food admixture): 30.6 ± 0.8 g
- Body weight Day 7 ([7]; 16.8 mg/100 g-food admixture): 32.4 ± 1.0 g
- Body weight Day 14 ([7]; 16.8 mg/100 g-food admixture): 34.6 ± 1.3 g
- Body weight Day 1 [7, 9]: 30.6 ± 0.6 g
- Effect on body weight (in words) ([7]; food admixture 16.8 mg/100 g-food, time course): not observed to produce any difference from the control group; also recorded: did not show any body-weight elevating actions
- Number of pancreatic B-cells (postmortem findings) [8]: increase the number of pancreatic B-cells
- Size of Langerhans' cells of the pancreatic islets (postmortem findings) [8]: enlarge the Langerhans' cells of the pancreatic islets
